melting point	SMILES
138 to 144 °C (dec.)	CC1=C(O)CCOC1=O
98 to 99 °C (dec.)	CCCCCCC1=C(O)CCOC1=O

Source: patent US6376230B1 (dated 2002)
